According to article PMC10746543, “Design principles for cyclin K molecular glue degraders” (Nature Chemical Biology, 2023):
Several values for one entry are separate records, joined by “and”; a condition that tells them apart may be missing. Identical values can stand only once. Like-named read-outs stand apart in the source and are kept apart here.

What was measured:
[1] = biological target: CDK12–cyclin K (Homo sapiens, UniProt Q9NYV4); assay: Lanthascreen kinase binding assay, CDK12; details: for Lanthascreen raw signal, sheet CDK12: series r1, duplicates
Experimental: (§1) Lanthascreen experiments were performed using commercially available reagents (Thermo Fisher) and according to the manufacturer’s instructions.

[2] = system: cyclin K–eGFP degradation reporter; assay: Cyclin K reporter stability analysis (dual-color cyclin K–eGFP reporter); assay type: cell-based, human; details: source data sheet correlations
Procedure, shortened: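 HEK293T–Cas9 cells carrying the cyclin K–eGFP reporter were seeded at 1 × 10^6 ml^−1 and exposed to drug or DMSO for 5 h. Flow cytometry gave geometric means of eGFP and mCherry in round, mCherry-positive cells. The eGFP/mCherry ratio was normalized to the mean of three DMSO controls.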

[3] = biological target: T1, CDK2–cyclin A (Homo sapiens, UniProt P24941); assay: Lanthascreen kinase binding assay, CDK2; details: for Lanthascreen signal, sheet CDK2: raw replicates, experiment r1-r11
T1 construct: purchased Thermo Fisher
Experimental: as §1

[4] = biological target: T2, CDK12–cyclin K and DDB1 (Homo sapiens, UniProt Q16531+Q9NYV4, K965R); assay: TR-FRET ternary complex formation assay (compound titration); assay type: binding; details: for TR-FRET signal at compound concentration 0.468 nM / TR-FRET signal at compound concentration 2.16 nM / TR-FRET signal at compound concentration 3.6 nM / TR-FRET signal at compound concentration 7.92001 nM / TR-FRET signal at compound concentration 15.84 nM / TR-FRET signal at compound concentration 30.96 nM / TR-FRET signal at compound concentration 62.6401 nM / TR-FRET signal at compound concentration 125.28 nM / TR-FRET signal at compound concentration 244.8 nM / TR-FRET signal at compound concentration 993.601 nM / TR-FRET signal at compound concentration 2001.6 nM: raw replicate titration data
T2 construct: His6–CDK12 (a.a. 713–1,052); full-length or beta-propeller B domain deletion (ΔBPB: a.a. 396–705 deleted) constructs of His6–DDB1ΔBPB, StrepII–Avi–DDB1, or His6–Spy–DDB1; made in house; host or cells: Trichoplusia ni High Five insect cells (baculovirus)
Procedure, shortened: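 Delayed (70 μs) time-resolved read; FRET computed as 520 nm over 490 nm emission.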

[5] = biological target: T3, CDK9–cyclin T (Homo sapiens, UniProt P50750); assay: Lanthascreen kinase binding assay, CDK9; details: for Lanthascreen TR-FRET signal (raw ratio), sheet CDK9: first titration set (r1), duplicates
T3 construct: purchased Thermo Fisher
Experimental: as §1

[6] = system: HEK293T cells; assay: Drug sensitivity assay (CellTiter-Glo viability) with or without MLN4924 pretreatment; assay type: cell-based, human; details: Supplementary Table 2; for EC50: Homo sapiens, HEK-293T, HEK293T viability, 72 h, compound alone, read-out: Cellular assays EC50; for Toxicity rescue: MLN4924-mediated cytotoxicity rescue, 10 µM used where n.d.
Procedure, shortened: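 Viability of HEK293T–Cas9 cells was compared after 3-day drug treatment with or without 100 nM MLN4924 pretreatment (2 h, versus DMSO). Values are CellTiter-Glo signals relative to DMSO controls.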

[7] = Supplementary Table 2, read-out: Lanthascreen IC50 [nM] CDK2
[8] = in vitro complex formation, 50 nM CDK12–cyclin K, 100 nM DDB1, text and figures, read-out: TR-FRET EC50
[9] = sheet MOESM7, read-out: log TR-FRET EC50 (converted)
[10] = source data sheet correlations, read-out: TR-FRET EC50
[11] = Supplementary Table 2, read-out: Lanthascreen IC50 [nM] CDK9

Chain of CDK12–cyclin K (Q9NYV4 713-1052): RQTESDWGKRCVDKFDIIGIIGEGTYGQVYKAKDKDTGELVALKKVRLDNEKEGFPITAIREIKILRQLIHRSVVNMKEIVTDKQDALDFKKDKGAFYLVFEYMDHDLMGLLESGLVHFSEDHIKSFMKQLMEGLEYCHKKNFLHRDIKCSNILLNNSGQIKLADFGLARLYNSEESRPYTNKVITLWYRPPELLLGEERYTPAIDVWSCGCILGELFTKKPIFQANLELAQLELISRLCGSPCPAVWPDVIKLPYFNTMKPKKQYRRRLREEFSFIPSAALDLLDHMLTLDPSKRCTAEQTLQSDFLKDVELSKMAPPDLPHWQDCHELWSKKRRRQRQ
Chain of CDK12–cyclin K (O75909 1-267 partner limits assumed): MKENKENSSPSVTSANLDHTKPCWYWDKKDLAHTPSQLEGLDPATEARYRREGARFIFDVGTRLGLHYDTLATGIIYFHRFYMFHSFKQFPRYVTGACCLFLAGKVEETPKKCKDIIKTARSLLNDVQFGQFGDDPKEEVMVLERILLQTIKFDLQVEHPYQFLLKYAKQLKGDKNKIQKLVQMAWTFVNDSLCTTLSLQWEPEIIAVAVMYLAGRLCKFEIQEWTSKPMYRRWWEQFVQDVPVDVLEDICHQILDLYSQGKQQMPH
T2 sequence (Q9NYV4 713-1052 K965R): as the sequence (Q9NYV4 713-1052) above, with K253R counted along it
T2 sequence (O75909 1-267 partner): as the sequence (O75909 1-267 partner limits assumed) above
T2 sequence (Q16531 whole entry): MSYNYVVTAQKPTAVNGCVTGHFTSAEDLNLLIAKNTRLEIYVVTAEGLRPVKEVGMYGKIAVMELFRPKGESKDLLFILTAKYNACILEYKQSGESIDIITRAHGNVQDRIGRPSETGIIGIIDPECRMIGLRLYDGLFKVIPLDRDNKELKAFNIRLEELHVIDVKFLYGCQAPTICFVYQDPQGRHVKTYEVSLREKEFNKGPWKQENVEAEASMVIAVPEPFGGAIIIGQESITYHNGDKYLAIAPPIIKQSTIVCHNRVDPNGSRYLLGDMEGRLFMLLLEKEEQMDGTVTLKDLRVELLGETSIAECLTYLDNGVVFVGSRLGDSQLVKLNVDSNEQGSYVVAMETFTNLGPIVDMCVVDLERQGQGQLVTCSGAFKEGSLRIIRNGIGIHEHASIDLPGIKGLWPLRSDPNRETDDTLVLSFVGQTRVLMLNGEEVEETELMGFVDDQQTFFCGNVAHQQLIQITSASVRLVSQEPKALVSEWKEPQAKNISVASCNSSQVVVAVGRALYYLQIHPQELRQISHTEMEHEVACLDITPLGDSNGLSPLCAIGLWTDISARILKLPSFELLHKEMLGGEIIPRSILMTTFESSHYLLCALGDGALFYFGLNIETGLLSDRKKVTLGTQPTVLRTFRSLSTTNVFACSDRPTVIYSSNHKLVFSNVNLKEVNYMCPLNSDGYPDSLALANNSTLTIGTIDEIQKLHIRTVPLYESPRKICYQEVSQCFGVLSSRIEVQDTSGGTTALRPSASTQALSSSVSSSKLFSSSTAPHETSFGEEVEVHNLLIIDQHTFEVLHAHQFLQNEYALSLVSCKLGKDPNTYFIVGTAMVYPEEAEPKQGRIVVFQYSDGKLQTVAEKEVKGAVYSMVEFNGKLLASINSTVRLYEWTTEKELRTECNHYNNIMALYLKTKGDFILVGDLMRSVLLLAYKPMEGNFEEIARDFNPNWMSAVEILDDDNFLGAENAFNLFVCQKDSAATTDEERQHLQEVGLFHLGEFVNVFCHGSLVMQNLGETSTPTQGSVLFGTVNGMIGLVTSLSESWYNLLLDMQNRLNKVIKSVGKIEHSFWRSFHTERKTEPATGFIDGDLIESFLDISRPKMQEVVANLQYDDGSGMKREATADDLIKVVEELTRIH
T3 sequence (P50750 whole entry): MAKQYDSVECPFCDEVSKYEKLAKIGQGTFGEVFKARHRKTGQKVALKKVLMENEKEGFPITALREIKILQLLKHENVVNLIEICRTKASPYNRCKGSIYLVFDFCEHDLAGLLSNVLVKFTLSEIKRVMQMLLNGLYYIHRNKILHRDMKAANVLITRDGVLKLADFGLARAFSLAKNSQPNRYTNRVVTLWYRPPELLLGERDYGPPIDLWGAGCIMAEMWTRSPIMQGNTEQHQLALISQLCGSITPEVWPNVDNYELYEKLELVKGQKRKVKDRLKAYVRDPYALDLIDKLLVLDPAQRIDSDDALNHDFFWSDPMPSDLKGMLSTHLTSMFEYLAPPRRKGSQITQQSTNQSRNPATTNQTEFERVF
T3 sequence (O60563 whole entry partner): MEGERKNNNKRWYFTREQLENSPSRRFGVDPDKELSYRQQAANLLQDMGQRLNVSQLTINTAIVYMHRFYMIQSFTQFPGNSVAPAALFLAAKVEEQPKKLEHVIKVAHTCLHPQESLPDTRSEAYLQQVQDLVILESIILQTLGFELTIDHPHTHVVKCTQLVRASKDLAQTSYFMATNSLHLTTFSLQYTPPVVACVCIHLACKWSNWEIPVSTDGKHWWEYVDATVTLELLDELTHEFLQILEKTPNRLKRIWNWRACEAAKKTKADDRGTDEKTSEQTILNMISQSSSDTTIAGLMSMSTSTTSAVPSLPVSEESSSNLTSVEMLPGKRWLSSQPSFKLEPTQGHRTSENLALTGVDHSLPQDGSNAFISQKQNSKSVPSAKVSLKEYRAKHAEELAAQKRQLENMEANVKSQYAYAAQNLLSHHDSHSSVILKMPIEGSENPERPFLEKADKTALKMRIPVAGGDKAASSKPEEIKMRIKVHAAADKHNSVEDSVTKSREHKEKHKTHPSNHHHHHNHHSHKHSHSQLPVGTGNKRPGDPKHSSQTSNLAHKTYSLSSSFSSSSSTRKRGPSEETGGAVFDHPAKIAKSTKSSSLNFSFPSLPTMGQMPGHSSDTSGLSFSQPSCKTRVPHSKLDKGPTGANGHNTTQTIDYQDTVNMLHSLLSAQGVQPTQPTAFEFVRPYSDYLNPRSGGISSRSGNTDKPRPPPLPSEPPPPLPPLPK

CC[C@H](CO)Nc1nc(NCc2nc3c(F)c(F)ccc3[nH]2)c2ncn(C(C)C)c2n1 [DS64]
Lanthascreen raw signal, sheet CDK12 ([1]; compound 1.02544 nM): 0.01144 and 0.008554
Lanthascreen raw signal, sheet CDK12 ([1]; compound 3.15521 nM): 0.008537 and 0.009228
Lanthascreen raw signal, sheet CDK12 ([1]; compound 9.46563 nM): 0.008646 and 0.00887
Lanthascreen raw signal, sheet CDK12 ([1]; compound 31.5521 nM): 0.00802 and 0.006596
Lanthascreen raw signal, sheet CDK12 ([1]; compound 99.3891 nM): 0.007448 and 0.007338
Lanthascreen raw signal, sheet CDK12 ([1]; compound 315.521 nM): 0.006013 and 0.008259
Lanthascreen raw signal, sheet CDK12 ([1]; compound 3155.21 nM): 0.007185 and 0.006229
Lanthascreen raw signal, sheet CDK12 ([1]; compound 10002 nM): 0.005174 and 0.004623
DC50 ([2]; read-out: DC50): 62 nM
Lanthascreen signal, sheet CDK2 ([3]; Compound 1.02544 nM): 0.01032 and 0.009036
Lanthascreen signal, sheet CDK2 ([3]; Compound 3.15521 nM): 0.009561 and 0.01039
Lanthascreen signal, sheet CDK2 ([3]; Compound 9.46563 nM): 0.01132 and 0.01064
Lanthascreen signal, sheet CDK2 ([3]; Compound 31.5521 nM): 0.009578 and 0.01231
Lanthascreen signal, sheet CDK2 ([3]; Compound 99.3891 nM): 0.0112 and 0.01036
Lanthascreen signal, sheet CDK2 ([3]; Compound 315.521 nM): 0.00859 and 0.007854
Lanthascreen signal, sheet CDK2 ([3]; Compound 3155.21 nM): 0.006995 and 0.007302
Lanthascreen signal, sheet CDK2 ([3]; Compound 10002 nM): 0.004999 and 0.005409
IC50 [3, 7]: 4960 nM
TR-FRET signal at compound concentration 0.468 nM [4]: 0.2748 and 0.2878
TR-FRET signal at compound concentration 2.16 nM [4]: 0.3281 and 0.3452
TR-FRET signal at compound concentration 3.6 nM [4]: 0.4287 and 0.4479
TR-FRET signal at compound concentration 7.92001 nM [4]: 0.6146 and 0.6538
TR-FRET signal at compound concentration 15.84 nM [4]: 0.9627 and 1.0618
TR-FRET signal at compound concentration 30.96 nM [4]: 1.485 and 1.709
TR-FRET signal at compound concentration 62.6401 nM [4]: 2.204 and 2.463
TR-FRET signal at compound concentration 125.28 nM [4]: 2.739 and 3.004
TR-FRET signal at compound concentration 244.8 nM [4]: 3.0364 and 3.323
TR-FRET signal at compound concentration 993.601 nM [4]: 3.365 and 3.564
TR-FRET signal at compound concentration 2001.6 nM [4]: 3.296 and 3.552
EC50 [4, 8]: 41 ± 2 nM
EC50 [4, 9]: 40.9 nM
EC50 [4, 10]: 40.9 nM
IC50 ([5]; Lanthascreen, average, Extended Data Fig. 8, read-out: CDK9 IC50): > 10000 nM
IC50 [5, 11]: > 10000 nM
Lanthascreen TR-FRET signal (raw ratio), sheet CDK9 ([5]; compound 1.02544 nM): 0.01262 and 0.01798
Lanthascreen TR-FRET signal (raw ratio), sheet CDK9 ([5]; compound 3.15521 nM): 0.01403 and 0.01513
Lanthascreen TR-FRET signal (raw ratio), sheet CDK9 ([5]; compound 9.46563 nM): 0.01561 and 0.01591
Lanthascreen TR-FRET signal (raw ratio), sheet CDK9 ([5]; compound 31.5521 nM): 0.01447 and 0.01334
Lanthascreen TR-FRET signal (raw ratio), sheet CDK9 ([5]; compound 99.3891 nM): 0.01493 and 0.01478
Lanthascreen TR-FRET signal (raw ratio), sheet CDK9 ([5]; compound 315.521 nM): 0.01351 and 0.01148
Lanthascreen TR-FRET signal (raw ratio), sheet CDK9 ([5]; compound 3155.21 nM): 0.008801 and 0.0091
Lanthascreen TR-FRET signal (raw ratio), sheet CDK9 ([5]; compound 10002 nM): 0.004226 and 0.004622
EC50 [6]: 527 nM
Toxicity rescue [6]: 971%

CN1CCN(c2nc(NCc3nc4c(F)c(F)ccc4[nH]3)n3ncc(Br)c3n2)CC1 [DS71]
IC50 ([1]; Supplementary Table 2, read-out: Lanthascreen IC50 [nM] CDK12): 134 nM
Lanthascreen raw signal, sheet CDK12 ([1]; compound 1.02544 nM): 0.006087 and 0.009032
Lanthascreen raw signal, sheet CDK12 ([1]; compound 3.15521 nM): 0.01061 and 0.007755
Lanthascreen raw signal, sheet CDK12 ([1]; compound 9.46563 nM): 0.009135 and 0.006327
Lanthascreen raw signal, sheet CDK12 ([1]; compound 31.5521 nM): 0.007705 and 0.007896
Lanthascreen raw signal, sheet CDK12 ([1]; compound 99.3891 nM): 0.007199 and 0.007003
Lanthascreen raw signal, sheet CDK12 ([1]; compound 315.521 nM): 0.006511 and 0.005836
Lanthascreen raw signal, sheet CDK12 ([1]; compound 3155.21 nM): 0.006388 and 0.004562
Lanthascreen raw signal, sheet CDK12 ([1]; compound 10002 nM): 0.005868 and 0.005096
DC50 ([2]; log value): 4 nM
DC50 ([2]; read-out: DC50): 4 nM
Lanthascreen signal, sheet CDK2 ([3]; Compound 1.02544 nM): 0.009545 and 0.009565
Lanthascreen signal, sheet CDK2 ([3]; Compound 3.15521 nM): 0.01077 and 0.01025
Lanthascreen signal, sheet CDK2 ([3]; Compound 9.46563 nM): 0.009718 and 0.00939
Lanthascreen signal, sheet CDK2 ([3]; Compound 31.5521 nM): 0.009822 and 0.01021
Lanthascreen signal, sheet CDK2 ([3]; Compound 99.3891 nM): 0.009696 and 0.01058
Lanthascreen signal, sheet CDK2 ([3]; Compound 315.521 nM): 0.0105 and 0.00942
Lanthascreen signal, sheet CDK2 ([3]; Compound 3155.21 nM): 0.01064 and 0.008324
Lanthascreen signal, sheet CDK2 ([3]; Compound 10002 nM): 0.005535 and 0.005659
IC50 ([3]; Lanthascreen, average, Extended Data Fig. 8, read-out: CDK2 IC50): > 10000 nM
IC50 [3, 7]: > 10000 nM
TR-FRET signal at compound concentration 0.468 nM [4]: 0.3328 and 0.3098
TR-FRET signal at compound concentration 2.16 nM [4]: 0.4001 and 0.3765
TR-FRET signal at compound concentration 3.6 nM [4]: 0.5431 and 0.4961
TR-FRET signal at compound concentration 7.92001 nM [4]: 0.8328 and 0.7643
TR-FRET signal at compound concentration 15.84 nM [4]: 1.412 and 1.246
TR-FRET signal at compound concentration 30.96 nM [4]: 2.416 and 2.183
TR-FRET signal at compound concentration 62.6401 nM [4]: 3.349 and 3.281
TR-FRET signal at compound concentration 125.28 nM [4]: 3.867 and 3.698
TR-FRET signal at compound concentration 244.8 nM [4]: 3.9597 and 3.8541
TR-FRET signal at compound concentration 993.601 nM [4]: 3.967 and 3.873
TR-FRET signal at compound concentration 2001.6 nM [4]: 4.005 and 3.884
EC50 [4, 8]: 28 ± 1 nM
EC50 [4, 9]: 27.6 nM
EC50 [4, 10]: 27.6 nM
IC50 [5, 11]: 684 nM
Lanthascreen TR-FRET signal (raw ratio), sheet CDK9 ([5]; compound 1.02544 nM): 0.01471 and 0.01339
Lanthascreen TR-FRET signal (raw ratio), sheet CDK9 ([5]; compound 3.15521 nM): 0.01367 and 0.0125
Lanthascreen TR-FRET signal (raw ratio), sheet CDK9 ([5]; compound 9.46563 nM): 0.01267 and 0.01475
Lanthascreen TR-FRET signal (raw ratio), sheet CDK9 ([5]; compound 31.5521 nM): 0.01209 and 0.01181
Lanthascreen TR-FRET signal (raw ratio), sheet CDK9 ([5]; compound 99.3891 nM): 0.01168 and 0.01283
Lanthascreen TR-FRET signal (raw ratio), sheet CDK9 ([5]; compound 315.521 nM): 0.01175 and 0.01042
Lanthascreen TR-FRET signal (raw ratio), sheet CDK9 ([5]; compound 3155.21 nM): 0.005807 and 0.004691
Lanthascreen TR-FRET signal (raw ratio), sheet CDK9 ([5]; compound 10002 nM): 0.004107 and 0.003744
EC50 [6]: 10 nM
Toxicity rescue [6]: 610%
